Assay results as given in the supplement of paper PMC10307832.

Columns and labels:
Experiment in all cases: relative viability (nuclei count vs DMSO), 5 days (fraction); higher = more cells survive
[1] = compound: CN(C)C[C@@H]1CCn2cc(c3ccccc32)C2=C(C(=O)NC2=O)c2cn(c3ccccc23)CCO1 [Ruboxistaurin] + CC(=O)Nc1cccc(-n2c(=O)n(C3CC3)c(=O)c3c(Nc4ccc(I)cc4F)n(C)c(=O)c(C)c32)c1 [Trametinib] (partner 0.02 µM)
Outline: (§1)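 Relative viability was taken as the ratio of nuclei in treated wells to nuclei in vehicle wells. Lung cancer cell lines in 1536-well plates received compounds by pin tool one day after seeding, either one drug alone or a fixed anchor-drug dose plus five library-drug doses (not always all listed) in √10 steps. Nuclei were counted on 4× images after 5 days of treatment, and values are medians of duplicate plates.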

[2] = compound: CN(C)C[C@@H]1CCn2cc(c3ccccc32)C2=C(C(=O)NC2=O)c2cn(c3ccccc23)CCO1 [Ruboxistaurin] + CCNC(=O)c1noc(-c2cc(C(C)C)c(O)cc2O)c1-c1ccc(CN2CCOCC2)cc1 [Luminespib] (partner 0.01 µM)
Outline: as §1

[3] = compound: CN(C)C[C@@H]1CCn2cc(c3ccccc32)C2=C(C(=O)NC2=O)c2cn(c3ccccc23)CCO1 [Ruboxistaurin] + CC(=O)c1c(C)c2cnc(Nc3ccc(N4CCNCC4)cn3)nc2n(C2CCCC2)c1=O [Palbociclib] (partner 0.5 µM)
Outline: as §1

[4] = compound: CN(C)C[C@@H]1CCn2cc(c3ccccc32)C2=C(C(=O)NC2=O)c2cn(c3ccccc23)CCO1 [Ruboxistaurin] + CS(=O)(=O)N1CCN(Cc2cc3nc(-c4cccc5[nH]ncc45)nc(N4CCOCC4)c3s2)CC1 [Pictilisib] (partner 1 µM)
Outline: as §1

[5] = compound: CN(C)C[C@@H]1CCn2cc(c3ccccc32)C2=C(C(=O)NC2=O)c2cn(c3ccccc23)CCO1 [Ruboxistaurin] + CS(=O)(=O)CCNCc1ccc(-c2ccc3ncnc(Nc4ccc(OCc5cccc(F)c5)c(Cl)c4)c3c2)o1 [Lapatinib] (partner 2 µM)
Outline: as §1

| Cell Line | relative viability ([1]; first compound 0.08 µM) | relative viability ([1]; first compound 0.8 µM) | relative viability ([1]; first compound 2.53 µM) | relative viability ([1]; first compound 8 µM) | relative viability ([2]; first compound 0.08 µM) | relative viability ([2]; first compound 0.8 µM) | relative viability ([2]; first compound 2.53 µM) | relative viability ([2]; first compound 8 µM) | relative viability ([3]; first compound 0.08 µM) | relative viability ([3]; first compound 0.8 µM) | relative viability ([3]; first compound 2.53 µM) | relative viability ([3]; first compound 8 µM) | relative viability ([4]; first compound 0.08 µM) | relative viability ([4]; first compound 0.8 µM) | relative viability ([4]; first compound 2.53 µM) | relative viability ([4]; first compound 8 µM) | relative viability ([5]; first compound 0.08 µM) | relative viability ([5]; first compound 0.8 µM) | relative viability ([5]; first compound 2.53 µM) | relative viability ([5]; first compound 8 µM) |
| --- | --- | --- | --- | --- | --- | --- | --- | --- | --- | --- | --- | --- | --- | --- | --- | --- | --- | --- | --- | --- |
| NCI-H3122 | 0.241 | 0.179 | 0.227 | 0.232 | 0.0884 | 0.1 | 0.11 | 0.0946 | 0.176 | 0.149 | 0.196 | 0.336 | 0.7 | 0.398 | 0.564 | 0.436 | 1.02 | 1.02 | 1 | 1.08 |
| PC-3 [JPC-3] | 0.821 | 0.653 | 0.715 | 0.685 | 0.703 | 0.649 | 0.75 | 0.757 | 0.561 | 0.487 | 0.518 | 0.556 | 0.883 | 0.678 | 0.742 | 0.814 | 0.428 | 0.417 | 0.44 | 0.391 |
| PC-14 | 1.05 | 0.667 | 0.73 | 0.527 | 0.159 | 0.144 | 0.184 | 0.154 | 0.603 | 0.452 | 0.51 | 0.528 | 0.788 | 0.63 | 0.689 | 0.402 | 0.353 | 0.311 | 0.302 | 0.294 |
| RERF-LC-KJ | 0.932 | 0.867 | 0.836 | 0.857 | 1.23 | 1.08 | 1.36 | 0.965 | 1.17 | 0.934 | 1.12 | 0.995 | 0.508 | 0.499 | 0.472 | 0.359 | 0.905 | 0.837 | 0.781 | 0.77 |
| SK-LU-1 | 0.575 | 0.418 | 0.717 | 0.422 | 0.208 | 0.212 | 0.204 | 0.2 | 0.427 | 0.342 | 0.429 | 0.381 | 0.55 | 0.55 | 0.561 | 0.426 | 0.937 | 0.785 | 0.996 | 0.969 |
| SK-MES-1 | 0.629 | 0.508 | 0.492 | 0.442 | 0.928 | 0.65 | 0.859 | 0.363 | 0.331 | 0.27 | 0.331 | 0.361 | 0.417 | 0.3 | 0.323 | 0.316 | 0.515 | 0.413 | 0.5 | 0.425 |
| SW 1573 | 0.527 | 0.491 | 0.549 | 0.516 | 0.232 | 0.208 | 0.314 | 0.182 | 0.433 | 0.371 | 0.354 | 0.523 | 0.468 | 0.39 | 0.542 | 0.37 | 1.1 | 1.12 | 1.18 | 1.03 |
| UMC-11 | 0.766 | 0.623 | 0.649 | 0.577 | 1.04 | 0.804 | 0.961 | 0.695 | 0.327 | 0.388 | 0.289 | 0.338 | 0.892 | 0.596 | 0.728 | 0.509 | 1.03 | 0.844 | 0.875 | 0.644 |
